A short description of data set [1]: Dynamic Vapour Sorption (DVS) hygroscopicity. As to conditions: 25° C., water, humidity change 0-95-0-95-0% RH; FIGS. 8 and 9. Format: physicochemical. How it is done:
3. Dynamic Vapour Sorption, DVS
Instrument type: DVS advantage
The crude product N-((4,6-dimethyl-2-oxo-1,2-dihydropyridin-3 -yl)methyl)-5 -ethyl-6-(ethyl(tetrahydro-2 H-pyran-4-yl)amino)-2-(piperidin-1-ylmethyl)benzofuran-4-carboxamide (50 mg, 0.091 mmol) obtained in Comparative example 1 was added to a reaction flask, and methanol (100 μL) was added. The solution was stirred at 25° C. for five days, filtrated and dried under vacuum to obtain a white to pale yellow powder. The DSC spectrum is shown in FIG. 7, in which the onset melting temperature is about 205.45° C.

The nature of data set [2]: Long-term, accelerated stability of crystal forms B and D (XRPD). As to conditions: Day 20; for change of XRPD peaks / crystal form stability: spread flat in the air. Format: physicochemical. Here is the method: 2. X-ray Powder Diffraction, XRPD
Instrument type: BRUKER D8 Discover A25 X-ray powder diffractometer
Ray: monochromatic Cu—Kα ray (λ=1.5406 Å)
Scanning mode: θ/2,θ Scanning range: 10-48°
Voltage: 40 kV, Electric current: 40 mA
The sample of crystal form B was spread flat in the air to test sample stability under conditions of 25° C.-65% relative humidity (RH), and the sampling time was Day 20. The sample of crystal form D was spread flat in the air to test sample stability under conditions of 40° C.-75% RH and 25° C.-65% RH, and the sampling time was Day 20.

Consider `CCc1c(N(CC)C2CCOCC2)cc2oc(CN3CCCCC3)cc2c1C(=O)NCc1c(C)cc(C)[nH]c1=O` [crystal form D, N-((4,6-dimethyl-2-oxo-1,2-dihydropyridin-3-yl)methyl)-5-ethyl-6-(ethyl(tetrahydro-2 H-pyran-4-yl)amino)-2-(piperidin-1-ylmethyl)benzofuran-4-carboxamide], for which the “hygroscopicity (DVS diagrams)” value in data set [1] is “no obvious hygroscopicity”. In addition, the “physical stability compared between crystal forms” value in data set [2] (25° C.-65%RH) was “better than that of crystal form B”. In data set [2] (40° C.-75% RH), the “change of XRPD peaks / crystal form stability” value was “has not changed substantially”.

Take `CCc1c(N(CC)C2CCOCC2)cc2oc(CN3CCCCC3)cc2c1C(=O)NCc1c(C)cc(C)[nH]c1=O` [crystal form B, N-((4,6-dimethyl-2-oxo-1,2-dihydropyridin-3-yl)methyl)-5-ethyl-6-(ethyl(tetrahydro-2 H-pyran-4-yl)amino)-2-(piperidin-1-ylmethyl)benzofuran-4-carboxamide]: the “change of XRPD peaks / crystal form stability” value in data set [2] (25° C.-65% RH) is recorded as “has changed significantly”.

Source of the values: patent publication US11155537B2, “Crystal of benzofuran derivative free base and preparation method” (Jiangsu Hengrui Medicine Co., Ltd., priority 2017, dated 2021).
